Patent publication US12201641B2, “Compositions comprising Withania Somnifera extract for mammalian consumption” (SpecNova LLC, priority 2021, dated 2025)

Experiment: in vitro
Details: human, Caco-2, pH 7.4, Caco-2 Permeability (Papp) (A→B); for Papp A→B at 120 min, 1 μg/mL: compound alone, 1 μg/mL in HBSS buffer, pH 7.4, 120 min
Experimental: The Caco-2 permeability of two Withania somnifera extracts prepared by the claimed method of the present application (EXT001 and EXT002) and one Withania somnifera extract prepared using an alternative method (ALT001) were measured for comparison. Caco-2 cells (ATCC HTB-37) were grown on 24 well Transwell plates for 21 days. as per internal protocol number MET-TDDC-011. On the day of experiment the transepithelial electrical resistance (TEER) was measured across the monolayer and wells with TEER greater than 200 ohm*cm^2 were used for the permeability assessment. Incubation buffer consisted of Hanks balanced salt solution (HBSS) without CaCl2 and MgCl2, adjusted to pH 7.4, for both the donor, and the receiver. […] Lucifer yellow was used as zero permeability reference to check membrane integrity.
The compound solutions were prepared in HBSS buffer (pH 7.4) at a concentration of 1 μg/mL for permeability assessment. 5 mg each of Withania somnifera extracts EXT002 and EXT001 were added to 5 mL of HBSS buffer and vortexed for 2 hours followed by filtration through 0.22 μm syringe filter. These solutions were used for permeability determination. […] The methanolic extract was filtered through 0.22 μm filter. This extract was concentrated to 1 mL by passing nitrogen gas at 40° C. for 1 hr. Then 20 μL of this extract was spiked in 2 mL of HBSS buffer and filtered through 0.22 μm filter. This solution was used for the permeability study.
The permeability assay was performed in triplicate for each compound or product. Prior to the permeability assay, the transwells were washed with in pre-warmed HBSS buffer. The medium in the insert was aspirated and then the transwells were transferred to a 24-well plate with blank HBSS buffer (600 μL) in each well, and compound solution (102.5 μL, of which 2.5 μL was sampled immediately as the zero-minute donor) was added to each insert. Receiver samples (25 μL) were collected at 60, and 120 minutes, and replaced with an equal volume of fresh pre-warmed receiver buffer (at 60 minutes). The donor side was sampled (2.5 μL) at 0 and 120 minutes. The assay was conducted at 37° C. in a humidified CO2 incubator.
For analysis, any necessary dilutions of samples were performed with HBSS, pH 7.4. 25 μL of sample was mixed with 100 μL of acetonitrile with 25 ng/mL of mitragynine internal standard (IS), and then mixed and filtered through 0.4 μm filter plate to by centrifugation for 5 minutes at 2,000 rpm to a polypropylene 96-well plate for analysis. The samples were assayed by LC-MS/MS method.
The apparent permeability coefficient (Papp) and recovery were calculated as follows: […]
Where, VA is the volume of the acceptor compartment; A is the diffusional area of the membrane (0.33 cm^2); T is the length of study; [Drug]ini,donor is the donor compound amount at 0 minute; [Drug]acceptor is the acceptor compound amount at 120 minute. The compounds with permeability above 5×10^−6 cm/s will be considered high permeability compounds while those with permeability below 5×10^−6 cm/s will be considered low permeability compounds.

SMILES	Papp A→B at 120 min, 5 μg/mL	Papp A→B at 120 min, 1 μg/mL
NS(=O)(=O)c1cc2c(cc1Cl)N=CNS2(=O)=O [Chlorothiazide, reference compound]	4.2 ± 1.79 ×10⁻⁶ cm/s	
CC1=C(CO)C(=O)O[C@@H]([C@@H](C)[C@H]2CC[C@H]3[C@@H]4C[C@H]5O[C@]56[C@@H](O)C=CC(=O)[C@]6(C)[C@H]4CC[C@]23C)C1 [Withaferin A, withaferin A]		4.55 ± 0.81 ×10⁻⁶ cm/s
CC1=C(C)C(=O)O[C@@H]([C@](C)(O)[C@H]2CC[C@H]3[C@@H]4[C@@H]5O[C@@H]5[C@@]5(O)CC=CC(=O)[C@]5(C)[C@H]4CC[C@]23C)C1 [Withanolide A, withanolide A]		3.23 ± 0.5 ×10⁻⁶ cm/s
CC1=C(C)C(=O)O[C@@H]([C@@H](C)[C@H]2CC[C@H]3[C@@H]4CC=C5C[C@@H](O[C@@H]6O[C@H](CO[C@@H]7O[C@H](CO)[C@@H](O)[C@H](O)[C@H]7O)[C@@H](O)[C@H](O)[C@H]6O)C[C@H](O)[C@]5(C)[C@H]4CC[C@]23C)C1 [Withanolside V, withanoside V]		4.03 ± 0.87 ×10⁻⁶ cm/s
CC1=C(CO)C(=O)O[C@@H]([C@@H](C)[C@H]2CC[C@H]3[C@@H]4CC=C5C[C@@H](O[C@@H]6O[C@H](CO[C@@H]7O[C@H](CO)[C@@H](O)[C@H](O)[C@H]7O)[C@@H](O)[C@H](O)[C@H]6O)C[C@H](O)[C@]5(C)[C@H]4CC[C@]23C)C1 [Withanoside IV, withanoside IV]		5.42 ± 0.69 ×10⁻⁶ cm/s
